Laboratory results from patent US10385399B2, “Method for determining clinically relevant hypoxia in cancer” (AARHUS UNIVERSITET, priority 2011, dated 2019).

What was measured:
[1] = system: head and neck cancer patients; assay: DAHANCA 5 trial: Nimorazole or placebo in conjunction with conventional radiotherapy, loco-regional tumour control; assay type: in vivo, human
From the text: In order to test the predictive potential for hypoxic modification of radiotherapy obtained by nitroimidazoles, the 15-gene classifier was applied on all 323 HNSCC biopsies from patients enrolled in the DAHANCA 5 trial. […] Overall, the hypoxia classifier categorized 114 tumours (35%) as “more” hypoxic and 209 tumours (65%) as “less” hypoxic. […] No significant difference in loco-regional tumour control could be detected between the two groups if treatment intervention was ignored (p=0.07), (FIG. 3b). […] This hypothesis could not be supported by the 15-gene hypoxia classifier that identified similar relative distribution of “more” hypoxic tumours among the HPV/p16-positive tumours as among the HPV/p16-negative tumours (Table 5). Thus, it appears that the cause for different prognosis must be searched elsewhere and might be related to a reduced number of radio-resistant cancer stem cells in the HPV/p16-positive tumors.
Hypoxia responsive and pH independent genes were identified by microarray analysis (Affymetrix Human Genome U133 Plus 2.0 Array) of relevant cell lines of squamous cell carcinoma, which were cultured in vitro where microenvironment conditions had been manipulated (0.1% vs. 5% pO2 and 7.4 vs. 6.3 pH). In vivo validation was performed by converting the cell lines into a xenograft model and comparing the gene expression in hypoxic and non-hypoxic tumour areas (Wilcoxon signed rank analysis) guided by a well established hypoxic tracer and [^18F] FAZA. A hypoxia gene expression classifier was build by separating 58 previously hypoxia evaluated formalin fixated paraffin embedded (FFPE) head and neck tumour biopsies into “more” and “less” hypoxic tumours. […] Independent tumours were then to be classified to the group (“more” or “less” hypoxic), in which their gene expression expressed the greatest similarities. The classifier was tested in an independent set of 323 FFPE biopsies of head and neck cancer, were patients had been randomized and treated with either placebo or the hypoxic modifier Nimorazole in conjunction with conventional radiotherapy^4. We verified whether the 15-gene hypoxia classifier could identify a subset of tumours having benefit from Nimorazole in conjunction with radiotherapy, by comparing the clinical outcome and the response to hypoxic modification in the two classified groups with log-rank test, cox-regression analysis and test for interaction.
In vitro experiments were based on human squamous cell carcinoma cell lines UTSCC5, UTSCC14, UTSCC15 (oral carcinoma), FADUDD (hypopharyngeal carcinoma) and SiHa (uterine cervix carcinoma). Xenograft tumours for in vivo validation were generated with cell lines of UTSCC33, FADUDD or SiHa. The hypoxia classifier was generated from 58 previously hypoxia evaluated head and neck cancer biopsies archived as formalin fixated and paraffin embedded samples (FFPE). To test the prognostic and predictive impact of the developed classifier, we used 323 archival supraglottic larynx or pharynx tumour samples (FFPE) from the randomized, double blinded DAHANCA 5 trial.
H, N and M areas of the xenograft tumours were compared with the Wilcoxon's signed rank analysis. End point used in the evaluation of the classifier in the independent data set, was actuarial loco-regional tumour control probability at 5 years, defined as complete and persistent disappearance of the disease in the primary tumour (T site) and regional lymph nodes (N site) after radiotherapy. Failure was recorded in the event of recurrent tumour or if the tumour never completely disappeared. Follow-up was completed as part of the original study. […] Patient and tumour characteristics of the “more” and “less” hypoxic” groups divided by the hypoxia classifier were compared using the Chi Squared test for categorical variables. Loco-regional tumour control in the two groups was illustrated with a Kaplan Meier plot and compared using the log-rank test. […]

[2] = system: head and neck cancer patients; settings: cited from earlier work

For `O=[N+]([O-])c1cncn1CCN1CCOCC1` [Nimorazole, 4-[2-(5-nitro-1H-imidazol-1-yl)ethyl]morpholine], the “HR (95% CI) loco-regional tumour control, Nimorazole vs placebo” value (shortened to “HR (95% CI) loco-regional tumour control”) ([1]; Cox multivariate analysis, "Less" hypoxic group by 15-gene hypoxia classifier) was 0.97 (0.65-1.44), the “HR (95% CI) loco-regional tumour control” value ([1]; Cox multivariate analysis, "More" hypoxic group by 15-gene hypoxia classifier) was 0.44 (0.27-0.73) and the “HR (95% CI) loco-regional tumour control” value ([1]; Cox multivariate analysis, all patients (n = 323)) was 0.70 (0.51-0.96). The “HR (95% CI) loco-regional tumour control” value ([1]; Univariate analysis, "Less" hypoxic group by 15-gene hypoxia classifier (n = 209)) was 0.85 (0.50-1.38), the “HR (95% CI) loco-regional tumour control” value ([1]; Univariate analysis, "More" hypoxic group by 15-gene hypoxia classifier (n = 114)) was 0.46 (0.29-0.75) and the “HR (95% CI) loco-regional tumour control” value ([1]; Univariate analysis, all patients (n = 323), with conventional radiotherapy) was 0.72 (0.53-0.97). The “outcome in terms of loco-regional tumour control after radiotherapy vs placebo” value ([1]; all 323 HNSCC patients, irrespective of hypoxia classification, p=0.03) was “significantly improved outcome”, the “loco-regional tumour control after 5 years” value ([1]; group classified as "less" hypoxic, Nimorazole with radiotherapy (vs. 44%, p=0.42)) was 50% and the “loco-regional tumour control after 5 years” value ([1]; group classified as "more" hypoxic, Nimorazole with radiotherapy (placebo 18%, p=0.002)) was 49%. The “outcome compared to placebo in conjunction with radiotherapy” value ([2]; DAHANCA 5 trial as described in the background, head and neck cancer patients) was “improved outcome” and the “effect on loco-regional tumour control of HPV/p16-positive tumors” value ([2]; HPV/p16-positive tumours, previously shown in the DAHANCA 5 study) was “without any beneficial effect”.
